For data set [1] the following is noted: cited from earlier work.
For data set [2] the following is noted: cited from earlier work. The source holds these as a separate data set.
The conditions of data set [3]: solution of zero salinity.
For data set [4] the following is noted: solution of zero salinity; cited from earlier work.

Regarding `O=C1C=C(S(=O)(=O)O)C=C(S(=O)(=O)O)C1=O` [1,2-benzoquinone-3,5-disulfonic acid], the “chemical stability in water” value in data set [1] is “chemical instability in water”. Besides, the reported solubility in data set [2] (organic PCET molecules from the redox-flow battery literature) was 3000 mM.
As to `O=C(O)O` [carbonic acid], in data set [3], the “first pKa” value was 6.0 and the “second pKa” value was determined as 9.4. Also, in data set [4], the “K1, first dissociation constant” value was 1.1 µM and the “K2, second dissociation constant” value is 410 pM.
Regarding `c1ccc2nccnc2c1` [quinoxaline], the solubility entry in data set [2] (in water and in weakly alkaline aqueous solution) is “above 4.0 M”.

Source of the values: patent US20210060484A1, “PROTON COUPLED ELECTROCHEMICAL CO2 CAPTURE SYSTEM” (President and Fellows of Harvard College, priority 2018, published 2021).
